Patent US9718828B2 (MERCK SHARP & DOHME CORP., priority 2011, dated 2017)
Structures can show the parent of a compound that is named as a salt.

Target: Btk enzyme (His-Btk) (Homo sapiens (Human), UniProt Q06187)
Experiment: Btk enzyme activity, IMAP fluorescence polarization assay (Assay Method A)
Settings: not given

Btk enzyme (His-Btk), sequence (Q06187 whole entry): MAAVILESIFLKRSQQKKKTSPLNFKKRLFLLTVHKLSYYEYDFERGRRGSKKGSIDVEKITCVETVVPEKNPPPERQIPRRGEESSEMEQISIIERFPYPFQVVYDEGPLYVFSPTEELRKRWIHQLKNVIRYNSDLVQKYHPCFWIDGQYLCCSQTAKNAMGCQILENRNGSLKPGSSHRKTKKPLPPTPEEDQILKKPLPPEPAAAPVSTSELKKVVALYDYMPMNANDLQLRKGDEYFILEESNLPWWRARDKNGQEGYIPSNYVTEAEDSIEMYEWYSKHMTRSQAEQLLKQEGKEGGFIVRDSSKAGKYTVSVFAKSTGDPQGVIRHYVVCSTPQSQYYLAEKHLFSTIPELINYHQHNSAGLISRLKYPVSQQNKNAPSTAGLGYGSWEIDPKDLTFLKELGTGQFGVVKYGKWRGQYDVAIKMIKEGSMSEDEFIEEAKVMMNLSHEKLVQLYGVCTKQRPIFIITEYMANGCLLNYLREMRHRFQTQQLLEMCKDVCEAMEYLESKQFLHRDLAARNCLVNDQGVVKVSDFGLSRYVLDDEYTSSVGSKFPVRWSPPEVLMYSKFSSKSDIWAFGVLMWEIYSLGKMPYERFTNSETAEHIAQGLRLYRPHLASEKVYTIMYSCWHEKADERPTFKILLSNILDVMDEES

EC50 | SMILES
100 to 1000 nM | Cc1nc(-c2ccc(C(=O)Nc3cc(C(F)(F)F)ccn3)cc2)c2c(N)ncc(C(=O)NC3CCN(C)CC3)n12 [Example 295, 8-amino-3-methyl-N-(1-methylpiperidin-4-yl)-1-(4-(4-(trifluoromethyl)pyridin-2-ylcarbamoyl)phenyl)imidazo[1,5-a]pyrazine-5-carboxamide]
10 to 100 nM | CC(C)(C)NC(=O)C1CCCN(c2nc(-c3ccc(C(=O)Nc4ccccn4)cc3)c3c(N)nccn23)C1 (centres unmarked) [Example 228, 1-(8-amino-1-(4-(pyridin-2-ylcarbamoyl)phenyl)imidazo[1,5-a]pyrazin-3-yl)-N-tert-butylpiperidine-3-carboxamide, TFA salt]
< 10 nM | CCC(=O)N1CCC[C@@H](c2nc(-c3ccc(C(=O)Nc4cc(C#N)ccn4)cc3)c3c(N)nccn23)C1 [Example 96, (R)-4-(8-amino-3-(1-propionylpiperidin-3-yl)imidazo[1,5-a]pyrazin-1-yl)-N-(4-cyanopyridin-2-yl)benzamide]
< 10 nM | Nc1nccn2c([C@@H]3CCCN(C(=O)C4CCC4)C3)nc(-c3ccc(C(=O)Nc4cc(C5CC5)ccn4)cc3)c12 [Example 59, (R)-4-(8-amino-3-(1-(cyclobutanecarbonyl)piperidin-3-yl)imidazo[1,5-a]pyrazin-1-yl)-N-(4-cyclopropylpyridin-2-yl)benzamide]
10 to 100 nM | COc1cccc(-c2cnc(N)c3c(-c4ccc(C(=O)Nc5cc(C(F)(F)F)ccn5)cc4)nc([C@@H]4CCCN(C(=O)C5(C)COC5)C4)n23)c1 [Example 320, (R)-4-(8-amino-5-(3-methoxyphenyl)-3-(1-(3-methyloxetane-3-carbonyl)piperidin-3-yl)imidazo[1,5-a]pyrazin-1-yl)-N-(4-(trifluoromethyl)pyridin-2-yl)benzamide]

Same assay, conditions: read-out: EC50 Btk activity values - Assay Method A; IMAP-FP, 60 min pre-incubation, 5 μM ATP; class 100-1000 is given as ≧100 nM-<1 μM

EC50 | SMILES
< 10 nM | CSCCNC(=O)C1CCCN(c2nc(-c3ccc(C(=O)Nc4cc(C(F)(F)F)ccn4)cc3)c3c(N)nccn23)C1 (centres unmarked) [Example 239, 1-(8-amino-1-(4-(4-(trifluoromethyl)pyridin-2-ylcarbamoyl)phenyl)imidazo[1,5-a]pyrazin-3-yl)-N-(2-(methylthio)ethyl)piperidine-3-carboxamide, TFA salt]
< 10 nM | Nc1nccn2c(N3CCCC(C(=O)NCC4CC4)C3)nc(-c3ccc(C(=O)Nc4cc(C(F)(F)F)ccn4)cc3)c12 (centres unmarked) [Example 233, 1-(8-amino-1-(4-(4-(trifluoromethyl)pyridin-2-ylcarbamoyl)phenyl)imidazo[1,5-a]pyrazin-3-yl)-N-(cyclopropylmethyl)piperidine-3-carboxamide, TFA salt]
< 10 nM | Nc1nccn2c1c(-c1ccc(C(=O)Nc3nc4c(s3)CCCC4)cc1)nc2[C@H]1CC[C@H](O)CC1 [Example 8, 4-(8-amino-3-((trans)-4-hydroxycyclohexyl)imidazo[1,5-a]pyrazin-1-yl)-N-(4,5,6,7-tetrahydrobenzo[d]thiazol-2-yl)benzamide]
< 10 nM | Nc1nccn2c(N3CCCC(C(=O)NC[C@@H]4CCCO4)C3)nc(-c3ccc(C(=O)Nc4cc(C(F)(F)F)ccn4)cc3)c12 (stereo partly drawn) [Example 231, 1-(8-amino-1-(4-(4-(trifluoromethyl)pyridin-2-ylcarbamoyl)phenyl)imidazo[1,5-a]pyrazin-3-yl)-N-(((S)-tetrahydrofuran-2-yl)methyl)piperidine-3-carboxamide, TFA salt]
< 10 nM | CC(C)C(=O)N[C@@H]1CCC[C@@H](c2nc(-c3ccc(C(=O)Nc4cc(C(F)(F)F)ccn4)cc3)c3c(N)nccn23)C1 (relative stereo) [Example 167, 4-(8-amino-3-((trans)-3-isobutyramidocyclohexyl)imidazo [1,5-a]pyrazin-1-yl)-N-(4-(trifluoromethyl)pyridin-2-yl)benzamide]
< 10 nM | Nc1nccn2c(N3CCC[C@@H](NC(=O)C4CC4)C3)nc(-c3ccc(C(=O)Nc4cc(C(F)(F)F)ccn4)cc3)c12 [Example 220, (R)-4-(8-amino-3-(3-(cyclopropanecarboxamido)piperidin-1-yl)imidazo[1,5-a]pyrazin-1-yl)-N-(4-(trifluoromethyl)pyridin-2-yl)benzamide]
